Test results: the Deep4Chem optical property database
“And” between values parts separate entries of the source, which are not always exact repeats. Identical values can stand only once. One block for each compound: values may come before it.

Assay: solvent given as SMILES

Compound: CCN(CC)c1ccc(-c2cc3c(s2)c(C(=O)OC)cc(=O)n3C)cc1
- emission maximum (in C1CCOC1): 543 nm
- emission maximum (in CC#N): 605 nm
- emission maximum (in CCO): 516 nm
- emission maximum (in CN(C)C=O): 604 nm
- emission maximum (in CO): 503 nm
- emission maximum (in CS(C)=O): 615 nm
- emission maximum (in Cc1ccccc1): 504 nm
- emission maximum (in ClC(Cl)Cl): 545 nm
- emission maximum (in ClCCl): 562 nm

Compound: CCN(CC)c1ccc(C2=C3C(C)=CC(/C=C/c4ccc(OCCCN=[N+]=[N-])cc4)=[N+]3[B-](F)(F)n3c(C)cc(C)c32)cc1
- emission maximum (in CO): 587 nm

Compound: CC(C)(C)C1CCC(=CS/C=C/c2ccc(/C=C/SC=C3CCC(C(C)(C)C)CC3)cc2)CC1 (stereo not given)
- emission maximum (in ClCCl): 422 nm

Compound: CC1(C)c2ccccc2N(c2ccccc2)c2ccc(-c3ccc(C(=O)c4ccc(-c5ccc6c(c5)C(C)(C)c5ccccc5N6c5ccccc5)cc4)cc3)cc21
- emission maximum (in Cc1ccccc1): 449.72 nm
- emission maximum (in O=P(c1ccccc1)(c1ccccc1)c1ccccc1Oc1ccccc1P(=O)(c1ccccc1)c1ccccc1): 475 nm

Compound: F[B-]1(F)n2c(ccc2N2CCOCC2)C(c2ccccc2)=C2C=CC(N3CCOCC3)=[N+]21
- emission maximum (in CC#N): 600 nm
- emission maximum (in CCCCCC): 595 nm
- emission maximum (in CCOC(C)=O): 597 nm
- emission maximum (in CO): 594 nm
- emission maximum (in ClCCl): 598 nm

Compound: CC(C)(C)c1ccc2c(c1)c1cc(C(C)(C)C)ccc1n2-c1cc(N2c3ccccc3C(c3ccccc3)(c3ccccc3)c3ccccc32)cc(-n2c3ccc(C(C)(C)C)cc3c3cc(C(C)(C)C)ccc32)c1C#N
- emission maximum (in Cc1ccccc1): 458 nm

Compound: CC/[NH+]=c1\cc2oc3cc(NCCC(=O)NCC(=O)OC)c4ccccc4c3nc-2cc1C
- emission maximum (in CCO): 644 nm
- emission maximum (in O): 652 nm

Compound: CCCCCCCCC1(CCCCCCCC)c2cc(C=O)ccc2-c2ccc(/C=C/c3ccc(N(c4ccccc4)c4ccccc4)cc3)cc21
- emission maximum (in C1CCOC1): 451 nm
- emission maximum (in C1COCCO1): 450 nm
- emission maximum (in CC#N): 486 nm
- emission maximum (in CC(C)=O): 481 nm
- emission maximum (in CCCCCC): 442 nm
- emission maximum (in CCOC(C)=O): 456 nm
- emission maximum (in CN(C)C=O): 490 nm
- emission maximum (in CS(C)=O): 485 nm
- emission maximum (in Cc1ccccc1): 451 nm
- emission maximum (in ClC(Cl)Cl): 459 nm
- emission maximum (in ClCCl): 469 nm

Compound: c1ccc(-c2nc(-c3ccccc3)nc(-c3ccc(-n4c5ccccc5c5cc6c(cc54)c4ccccc4n6-c4ccccc4)cc3)n2)cc1
- emission maximum (in Cc1ccccc1): 478 nm
- emission maximum (in O=P(c1ccccc1)(c1ccccc1)c1ccc2oc3ccc(P(=O)(c4ccccc4)c4ccccc4)cc3c2c1): 511 nm

Compound: N#Cc1cc(N2c3ccccc3Sc3ccccc32)cc(N2c3ccccc3Sc3ccccc32)c1
- emission maximum (in Cc1ccccc1): 536 nm

Compound: N#Cc1cc(-n2c3ccccc3c3ccccc32)nc(-n2c3ccccc3c3ccccc32)n1
- emission maximum (in Cc1ccccc1): 471 nm

Compound: CCN(CC)c1ccc2c(-c3ccc(S(=O)(=O)O)cc3S(=O)(=O)[O-])c3ccc(=[N+](CC)CC)cc-3oc2c1
- emission maximum (in CC#N): 575 nm
- emission maximum (in CCO): 581 nm
- emission maximum (in CN(C)C=O): 576 nm
- emission maximum (in O): 591 nm

Compound: CC[N+]1(CC)CN2C(=N1)C(C(=O)O)=Cc1cc(SC)ccc12
- emission maximum (in O): 515 nm

Compound: CCCCCCCCOc1ccc(-c2c3c4n(c(-c5ccc(OCCCCCCCC)cc5)c3c3n2[B-](F)(F)[n+]2c(ccc5cc(C(C)(C)C)ccc52)C=3C#N)[B-](F)(F)[n+]2c(ccc3cc(C(C)(C)C)ccc32)C=4C#N)cc1
- emission maximum (in ClC(Cl)Cl): 773 nm

Compound: COC(=O)c1cc(=O)n(C)c2cc(-c3ccc(N4CCN(C)CC4)cc3)sc12
- emission maximum (in CC#N): 587 nm
- emission maximum (in ClCCl): 550 nm

Compound: CCCCCCCCCCCCOc1cc(C(=O)Nc2ccc(-c3ccc4c(c3)C(=O)c3ccccc3-4)cc2)cc(OCCCCCCCCCCCC)c1OCCCCCCCCCCCC
- emission maximum (in C1CCOC1): 529 nm

Compound: CCC1(CC)c2ccccc2-c2c1c1c(c3c2C(CC)(CC)c2cc(B(c4c(C)cc(C)cc4C)c4c(C)cc(C)cc4C)ccc2-3)C(CC)(CC)c2ccccc2-1
- emission maximum (in C1CCOC1): 385 nm
- emission maximum (in CC#N): 404 nm
- emission maximum (in CC(C)=O): 395 nm
- emission maximum (in CCCCCC): 372 nm
- emission maximum (in ClC(Cl)Cl): 387 nm

Compound: COc1cc(OC)cc(C2=C(c3cc(OC)c(OC)c(OC)c3)C3=Nc4c(-c5cc(OC)c(OC)c(OC)c5)c(-c5cc(OC)cc(OC)c5)c(-c5ccc(C(C)(C)C)cc5)n4[B-](F)(F)[N+]3=C2c2ccc(C(C)(C)C)cc2)c1
- emission maximum (in Cc1ccccc1): 721 nm

Compound: Cc1cc(C)n2c1C=C1c3ccccc3C(c3cccn3C)=[N+]1[B-]2(F)F
- emission maximum (in C1CCOC1): 608 nm
- emission maximum (in CC#N): 606 nm
- emission maximum (in CCCCCC): 605 nm
- emission maximum (in CO): 605 nm
- emission maximum (in Cc1ccccc1): 613 nm
- emission maximum (in ClCCl): 611 nm

Compound: c1ccc2[nH]ccc2c1
- emission maximum (in O): 360 nm and 345 nm and 340 nm

Compound: CCc1c(C)[nH]c(C2=[N+]3C(=C(C)c4c(C)c(CC)c(C)n4[B-]3(F)F)c3ccccc32)c1C
- emission maximum (in C1CCOC1): 656 nm
- emission maximum (in CC#N): 652 nm
- emission maximum (in CCCCCC): 636 nm
- emission maximum (in CO): 650 nm
- emission maximum (in Cc1ccccc1): 646 nm
- emission maximum (in ClCCl): 645 nm

Compound: CC1=CC(C)=[N+]2C1=C(c1ccc(O)cc1)c1c(C)cc(/C=C/C=C3/N(C)c4ccccc4C3(C)C)n1[B-]2(F)F
- emission maximum (in O): 708 nm

Compound: CN(C)CCCN1c2ccccc2Sc2ccc(Cl)cc21
- emission maximum (in CC#N): 451 nm
- emission maximum (in CO): 449 nm
- emission maximum (in O): 453 nm

Results, then the compound that gave them:

- emission maximum (in C1CCCCC1): 432 nm
Compound: CC[Si](CC)(CC)Oc1cccc(O[Si](CC)(CC)CC)c1-c1c2ccccc2c(-c2c(O[Si](CC)(CC)CC)cccc2O[Si](CC)(CC)CC)c2ccccc12

- emission maximum (in ClC(Cl)Cl): 473 nm
Compound: C(#Cc1ccccc1)C(C#Cc1ccccc1)=Cc1ccc2cc(C=C(C#Cc3ccccc3)C#Cc3ccccc3)ccc2c1

- emission maximum (in CCO): 651 nm
- emission maximum (in ClC(Cl)Cl): 647 nm
- emission maximum (in O): 658 nm
Compound: CC[N+](CC)=c1ccc2c(-c3ccccc3C(=O)O)c3c(=O)oc4cc5c(cc4c3oc-2c1)CCCN5C

- emission maximum (in C1CCCCC1): 391 nm
Compound: COc1ccc2c3c(c4ccc(OC)cc4c2c1)C(C)(C)c1ccccc1-3

- emission maximum (in ClCCl): 410 nm
Compound: CCOC(=O)c1c(-c2c(Cl)c3ccccc3oc2=O)nn(-c2cccc(C)c2)c1C(=O)OCC

- emission maximum (in ClCCl): 444 nm
Compound: O=S1(=O)C2=C(c3ccccc31)C1(C3=C(c4ccccc41)S(=O)(=O)c1ccccc13)c1ccccc12

- emission maximum (in ClCCl): 577 nm
Compound: CC(=O)c1ccc(C#Cc2ccc3c(N(C)C)cc(-c4ccccc4)cc3c2)cc1

- emission maximum (in ClCCl): 549 nm
Compound: COc1ccc(N2c3sc4ccccc4c3Sc3c2sc2ccccc32)cc1

- emission maximum (in ClCCl): 445 nm
Compound: CCCCn1c(-c2ccc(-c3nnc(-c4ccc5ccccc5c4)o3)cc2)nc(-c2ccccc2)c1-c1ccccc1

- emission maximum (in O): 397 nm
Compound: CCCCn1c(-c2ccc(-c3ccc(-c4ccc(-c5n(CCCC)c6ccccc6[n+]5CCCC)cc4)cc3)cc2)[n+](CCCC)c2ccccc21

- emission maximum (in ClCCl): 741 nm
Compound: CC(C)(C)c1cc(-c2c3cc(c(-c4cc(C(C)(C)C)cc(C(C)(C)C)c4)c4ccc([nH]4)c(-c4ccc(Br)cc4)c4nc(c(-c5ccc(Br)cc5)c5ccc2[nH]5)C=C4)N=C3)cc(C(C)(C)C)c1

- emission maximum (in ClC(Cl)Cl): 626 nm
Compound: CCCC1=CC2=C(c3c(C)cc(C)cc3C)c3cc(CCC)c(-c4ccc5ccc6cccc7ccc4c5c67)n3[B-](F)(F)[N+]2=C1c1ccc2ccc3cccc4ccc1c2c34

- emission maximum (in ClCCl): 400 nm
Compound: CCCCC(CC)Cn1c2cc(C#N)ccc2c2ccc(C#Cc3ccc4ccc5c(C#Cc6ccc7c8ccc(C#N)cc8n(CC(CC)CCCC)c7c6)ccc6ccc3c4c65)cc21 (stereo not given)

- emission maximum (in CO): 572 nm
Compound: Cc1cc(C)c(B(c2cc(-c3ccc(C(C)(C)C)cc3)sc2-c2sc(-c3ccc(C(C)(C)C)cc3)cc2P(=O)(c2ccccc2)c2ccccc2)c2c(C)cc(C)cc2C)c(C)c1

- emission maximum (in CC#N): 381 nm
Compound: Cc1sc(Cl)cc1-c1nc(-c2ccccc2)[nH]c1-c1cc(Cl)sc1C

- emission maximum (in ClC(Cl)Cl): 413 nm
Compound: N#Cc1ccc(Oc2ccc3c4c(cccc24)C(=O)N(CCO)C3=O)cc1

- emission maximum (in CCO): 674 nm
- emission maximum (in CO): 674 nm
- emission maximum (in CS(C)=O): 681 nm
- emission maximum (in O): 669 nm
Compound: CN1/C(=C/C=C(/C=C/c2sc3ccccc3[n+]2C)c2ccc(F)cc2)Sc2ccccc21

- emission maximum (in ClCCl): 426 nm
Compound: N#Cc1ccc(C2=Cc3ccccc3P2(=O)c2ccccc2)cc1 (stereo not given)

- emission maximum (in ClC(Cl)Cl): 647 nm
Compound: CCCCCCCCN1C(=O)c2ccc3c4c(-c5ccc6c7ccccc7n(-c7ccccc7)c6c5)cc5c6c(ccc(c7c(-c8ccc9c%10ccccc%10n(-c%10ccccc%10)c9c8)cc(c2c37)C1=O)c64)C(=O)N(CCCCCCCC)C5=O

- emission maximum (in ClCCl): 360 nm
Compound: c1ccc(C2c3ccccc3-c3cc4c(cc32)-c2ccccc2C4c2ccccc2)cc1 (stereo not given)

- emission maximum (in CC#N): 519 nm
- emission maximum (in CO): 562 nm
Compound: O=c1c2ccccc2c2c3c(cccc13)c(-c1ccccc1)c1c3cccc4cccc(c43)c12

- emission maximum (in C1CCCCC1): 429 nm
- emission maximum (in CC#N): 430 nm
Compound: C[Si](C)(C)[Si](C)(C)c1c2ccccc2cc2ccccc12

- emission maximum (in C1CCOC1): 410 nm
Compound: Cc1csc(C)c1C1=C(c2c(C)sc(-c3ccc(-c4nc(-c5ccccc5)c(-c5ccccc5)[nH]4)cc3)c2C)C(F)(F)C(F)(F)C1(F)F

- emission maximum (in C1CCCCC1): 411 nm
- emission maximum (in CC#N): 420 nm
- emission maximum (in CO): 414 nm
- emission maximum (in ClCCl): 420 nm
Compound: C(C#Cc1ccc2ccc3cccc4ccc1c2c34)#Cc1cccc2ccccc12

- emission maximum (in ClCCl): 427 nm
Compound: c1ccc2cc(-c3c4ccccc4c(-c4ccc(-n5c6ccccc6c6ccccc65)cc4)c4ccccc34)ccc2c1

- emission maximum (in ClCCl): 423 nm
Compound: CC(C)c1cccc(C(C)C)c1N1C(=O)c2cccc3c(Oc4ccc(Cl)cc4)ccc(c23)C1=O

- emission maximum (in ClC(Cl)Cl): 568 nm
Compound: F[B-]1(F)n2cccc2C(c2ccccc2)=C2C=CC(c3cccc(OC4=[N+]5C(=C(c6ccccc6)c6cc(Br)c(Br)n6[B-]5(F)F)C=C4Br)c3)=[N+]21

- emission maximum (in C1COCCO1): 426 nm
Compound: c1ccc(-c2nc(-c3ccc(-c4ccc(-c5ccc(-c6nc(-c7ccccc7)c(-c7ccccc7)o6)cc5)cc4)cc3)oc2-c2ccccc2)cc1

- emission maximum (in ClCCl): 504 nm
Compound: COc1ccc(-c2c3ccccc3c(C#Cc3ccccc3)c3cc4cc(C)sc4cc23)cc1

- emission maximum (in ClC(Cl)Cl): 510 nm
Compound: CCCCCCCCc1ccc(-n2c3c4ccccc4nc(-c4ccc(C#N)cc4)c3c3c2c2c(-c4ccc(C#N)cc4)nc4ccccc4c2n3-c2ccc(CCCCCCCC)cc2)cc1

- emission maximum (in C1CCCCC1): 371 nm
Compound: COCCC1(CCOC)c2cc(-c3ccc(OC)cc3)ccc2-c2ccc(-c3ccc(OC)cc3)cc21

- emission maximum (in C1CCOC1): 399 nm
Compound: F[Si-](F)(c1ccccc1)(c1ccccc1)c1c2ccccc2cc2ccccc12
